# Measurements published in US12697403B2, “Small molecules for dual function positron emission tomography (PET) and cell suicide switches” (THE TRUSTEES OF THE UNIVERSITY OF PENNSYLVANIA, priority 2017, dated 2026).
# Key:
# [1] = tested on: luciferase fused to the FKBP12 L106P destabilizing domain (L106P-tsLuc); test: Luminescence assay with HCT116-L106P-tsLuc cells; type: cell-based; conditions: HCT116 cells expressing L106P-tsLuc, 3 nM to 10 uM
# Experimental: (§1) Procedure for DHFR-iCasp9 Cell Kill Assay with Bis-TMP Compounds: • Cell culture • Cell lines (MDA-MB231-luc transduced with DHFR-icasp9 with different linker lengths) were cultured in DMEM (Gibco) with 10% fetal bovine serum (Sigma), 100 U/mL penicillin and 100 ug/mL streptomycin (Invitrogen). • Incubation is done at 37° C. with 5% CO2 • Cell assay • Cells were plated on 96 well black plate, 3×10^4 cells/well. • The next day, cells were treated with varying concentrations of Bis-TMP compounds (Bis-TMP-#). • Cells were incubated for 24 hours and luciferin was added (120 ug/mL), after which bioluminescence was measured using Perkin Elmer Enspire Multi-mode Plate reader. Luminescence Assay with HCT116-L106P-tsLuc Cells Following Treatment with Shield-1 Compounds: • Day 1: Plate 50,000 cells/50 uL/well on 96 well black plate. • Day 2: • Add compounds (FP-Shield-1, control Shield-1 in 50 uL volume). • Incubate for 24 h at 37° C. with CO2. • Day 3: Add luciferin and read immediately.
# [2] = target: F36V-FKBP (Homo sapiens, UniProt P62942, F37V); conditions: cited from earlier work; for binding to mutant F36V-FKBP relative to the wild-type protein: F36V-FKBP versus wild-type FKBP
# [3] = tested on: LID system (F36V-FKBP with degron) fused to CAR in T cells; conditions: preclinical studies; cited from earlier work
# [4] = target: T1, MDA-MB231 cells transduced with DHFR-iCasp9 (Escherichia coli, UniProt P0ABQ4); conditions: for activation of the DHFR-iCasp9 suicide gene: MDA-MB231 cells transduced with DHFR-15-iCasp9 or DHFR-18-iCasp9
# T1 sequence (P0ABQ4 1-159): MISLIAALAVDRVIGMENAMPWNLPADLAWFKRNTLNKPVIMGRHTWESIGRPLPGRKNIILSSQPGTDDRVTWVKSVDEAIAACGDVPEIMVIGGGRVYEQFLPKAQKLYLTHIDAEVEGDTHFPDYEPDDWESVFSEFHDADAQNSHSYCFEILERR
# T1 sequence (P55211 135-416 partner): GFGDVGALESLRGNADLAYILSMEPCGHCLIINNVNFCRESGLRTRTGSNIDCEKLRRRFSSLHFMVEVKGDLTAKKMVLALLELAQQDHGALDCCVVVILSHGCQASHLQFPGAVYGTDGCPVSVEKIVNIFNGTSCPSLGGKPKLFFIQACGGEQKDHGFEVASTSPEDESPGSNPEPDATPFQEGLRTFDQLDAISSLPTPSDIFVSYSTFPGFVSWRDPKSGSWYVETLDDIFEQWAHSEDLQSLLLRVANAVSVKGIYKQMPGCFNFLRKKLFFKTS
# Experimental: as §1
# [5] = tested on: iCasp9 in CAR T cells directed against desmoglein-3; test: Caspase activation / killing of iCasp9 CAR T cells by AP20187; type: cell-based; conditions: nontransduced cells (NTD) and cells without iC9
# Description: (§2) The iCasp9 system has been previously incorporated into CAR T cells directed against desmoglein-3 by others for studying pemphigus. T cells were transduced with two different CARs containing iCasp9 (iC9) and one CAR without iC9. The inducible caspase 9 was activated by treatment with varying concentrations of AP20187, a chemical inducer of dimerization which is an analog of AP1903 (FIG. 9). Of note is that the fraction of dead cells is less than 100% because not all of the cells were transduced. The IC50 of AP20187 is <0.1 nM. Nontransduced cells (NTD) and cells without iC9 were not killed by AP20187.
# [6] = target: T2, iCasp9 in CAR T cells directed against desmoglein-3 (Homo sapiens, UniProt P55211+P62942, F37V); test: as above; type: cell-based; conditions: T cells transduced with CARs containing iCasp9; read-out: IC50 (fraction of dead cells)
# T2 construct: expressed in transfected cells; host or cells: T cells
# Description: as §2
# [7] = tested on: iCasp9 modified T cells; conditions: cited from earlier work
smiles,measurement,setting,value
CC[C@H](C(=O)N1CCCC[C@H]1C(=O)O[C@H](CCc1ccc(OC)c(OC)c1)c1cccc(OCCN2CCOCC2)c1)c1cc(OC)c(OC)c(OC)c1 [Shield-1],protein stabilization (luminescence),[1],equivalent protein stabilization when compared to the literature
same,binding to mutant F36V-FKBP relative to the wild-type protein,[2],greater than three orders of magnitude
same,IC50,[2]; read-out: IC50 for the mutant protein F36V-FKBP,3.3 nM
same,IC50 for control of CAR expression,[3],in the nM range
"COc1cc(Cc2cnc(N)nc2N)cc(OC)c1OCCCCC(=O)NCCCOCCCNC(=O)CCCCOc1c(OC)cc(Cc2cnc(N)nc2N)cc1OC [Bis-TMP-21, N,N′-(oxybis(propane-3,1-diyl))bis(5-(4-((2,4-diaminopyrimidin-5-yl)methyl)-2,6-dimethoxyphenoxy)pentanamide)]",activation of the DHFR-iCasp9 suicide gene,[4],potent activation of the DHFR-iCasp9 suicide gene at low nM concentrations
CC[C@H](C(=O)N1CCCC[C@H]1C(=O)O[C@H](CCc1ccc(OC)c(OC)c1)c1cccc(OCC(=O)NCC(CNC(=O)COc2cccc([C@@H](CCc3ccc(OC)c(OC)c3)OC(=O)[C@@H]3CCCCN3C(=O)[C@@H](CC)c3cc(OC)c(OC)c(OC)c3)c2)CN(C)C)c1)c1cc(OC)c(OC)c(OC)c1 [AP20187],killing of control cells,[5],not killed
same,IC50,[6],< 0.1 nM
CC[C@H](C(=O)N1CCCC[C@H]1C(=O)O[C@H](CCc1ccc(OC)c(OC)c1)c1cccc(OCC(=O)NCCNC(=O)COc2cccc([C@@H](CCc3ccc(OC)c(OC)c3)OC(=O)[C@@H]3CCCCN3C(=O)[C@@H](CC)c3cc(OC)c(OC)c(OC)c3)c2)c1)c1cc(OC)c(OC)c(OC)c1 [AP1903],adverse events in humans,[7]; given to humans,without any reported serious adverse events
same,modified T cells eliminated,"[7]; patients with GVHD, single dose, within 30 min after administration",more than 90%
same,graft-versus-host disease outcome,"[7]; patients with GVHD, single dose",terminated without abrogating immune reconstitution
same,binding to mutant F36V-FKBP relative to the wild-type protein,[2],greater than three orders of magnitude
"COc1cc(Cc2cnc(N)nc2N)cc(OC)c1OCCCCC(=O)NCCCOCCOCCOCCCNC(=O)CCCCOc1c(OC)cc(Cc2cnc(N)nc2N)cc1OC [Bis-TMP-27, N,N′-(((oxybis(ethane-2,1-diyl))bis(oxy))bis(propane-3,1-diyl))bis(5-(4-((2,4-diaminopyrimidin-5-yl)methyl)-2,6-dimethoxyphenoxy)pentanamide)]",activation of the DHFR-iCasp9 suicide gene,[4],potent activation of the DHFR-iCasp9 suicide gene at low nM concentrations
same,cells killed,"[4]; MDA-MB231 cells transduced with DHFR-18-iCasp9, 24 hours",~ 70%
same,IC50,"[4]; read-out: IC50 of cell killing, MDA-MB231 cells transduced with DHFR-18-iCasp9, 24 hours",~5 nM
